# According to US20230138400A1, “METHODS AND PHARMACEUTICAL COMPOSITIONS FOR REPROGRAMING IMMUNE ENVIRONMENT IN A SUBJECT IN NEED THEREOF” (INSERM (INSTITUT NATIONAL DE LA SANTE ET DE LA RECHERCHE …, priority 2016, published 2023):
# What was measured:
# [1] = test system: naive CD4 T cells isolated from the spleen of C57BL/6 mice; assay: Polarization of naive CD4 T cells (Th1, Th2, Treg, Th17 conditions) in presence of DDA, flow cytometry; assay type: cell-based, mouse
# Experimental: (§1) FIGS. 1A-E. Sorted naive CD4 T cells were isolated from the spleen of C57BL/6 mice and activated in the indicated Th1, Th2, Treg, or Th17 polarizing conditions as described in the “Materials and methods” section”. These cells were cultured in the presence of increasing concentrations of DDA. After 96 hours, the percentage of (A) Th1: CD4+Tbet+IFNg+, (B) Th2: CD4+GATA3+[…], (C) Treg: CD4+Foxp3+IL10+ and (D) Th17: CD4+RORgt+[…], cells was measured by flow cytometry. (E) Sorted naive CD8 T cells were isolated from the spleen of the C57BL/6 mice and activated with anti-CD3, anti-CD28 and recombinant IL2. After 96 hours, the percentage of cytotoxic T CD8+GranzymB+IFNg+ cells was measured by flow cytometry.
# (§2) FIGS. 2A-E. Sorted naive CD4 T cells isolated from the spleen of C57BL/6 mice were activated in Th1, Th2, Treg, or Th17 polarizing conditions as indicated in the “Materials and methods” section”. After 96 h, increasing concentrations of DDA was added on polarized CD4 T cells for 24 h. Then the percentage of (A) CD4+Tbet+IFNg+, (B) CD4+GATA3+[…], (C) CD4+Foxp3+IL10+ and (D) CD4+RORgt+[…] cells was measured by flow cytometry. (E) Sorted naïve CD8 T cells were isolated from the spleen of the C57BL/6 mice and activated with anti-CD3, anti-CD28 and recombinant IL2. After 96 h, increasing concentrations of DDA was added on activated CD8 T cells for 24 h. Then the percentage of cytotoxic T CD8+GranzymB+IFNg+ cells was measured by flow cytometry.
# Cells isolation. Single-cells leukocyte suspensions were obtained from spleens of C57BL/6 mice. Naive CD4 or CD8 T cells are isolated by depletion of memory CD4 or CD8 T cells and non-CD4 or non-CD8 T cells according the manufacturer's protocol from Miltenyi kit (Miltenyi biotec). Purities of CD4+CD44l^ow CD62L^high or CD8+CD44l^ow CD62L^high T cells after isolation were >98%
# Immune cell culture. Isolated CD4+ or CD8+ T cells were cultures in 96-well flat bottom plates (0.25×10^6 cells per wells) in 0.25 ml of complete RPMI 1640 media (10% FBS, 1% penicillin/Streptomycin, 1% sodium pyruvate, 1% HEPES and 50 μM b-mercaptoethanol) in the presence of 10 μg/ml plate-bound anti-mouse CD3 (2C11) and 2 μg/ml soluble α-CD28 (LEAF) in addition to 50 ng/ml of recombinant IL-2 (e-bioscience). DDA (synthesized by Affichem) diluted in the solvent vehicle was added at increasing concentration (0-1-10-100 and 1000 nM). Cells were cultured in polarizing Th1 (20 ng/ml of recombinant […] and 10 μg/ml of anti-IL4), Th2 (50 ng/ml of recombinant IL-4, 10 μg/ml of anti-IFNg), Th17 (10 ng/ml of recombinant TGF-b, 100 ng/ml of recombinant IL-6, 10 μg/ml of anti-IFN-g and 10 μg/ml of anti-IL4) or Treg (10 ng/ml of recombinant TGF-b, 10 μg/ml of anti-IFNg and 10 μg/ml of anti-IL4) conditions. All recombinant cytokines were purchased from Peprotech and antibodies were purchased from eBioscience. After 5 days of culture, cells were collected and analyzed by flow cytometry. To investigate the impact of DDA on polarization of CD4 or CD8 naive T cells, DDA or the solvent vehicle was added at the beginning of culture at Day 0 or at Day 4 and cells was analyzed at day 5 by flow cytometry.
# [2] = test system: naive CD8 T cells isolated from the spleen of the C57BL/6 mice; assay: Activation of naive CD8 T cells (anti-CD3, anti-CD28, IL2) in presence of DDA, flow cytometry; assay type: cell-based, mouse
# Experimental: as §1, §2
# Cells isolation. Single-cells leukocyte suspensions were obtained from spleens of C57BL/6 mice. Naive CD4 or CD8 T cells are isolated by depletion of memory CD4 or CD8 T cells and non-CD4 or non-CD8 T cells according the manufacturer's protocol from Miltenyi kit (Miltenyi biotec). […]
# Immune cell culture. […] After 5 days of culture, cells were collected and analyzed by flow cytometry. To investigate the impact of DDA on polarization of CD4 or CD8 naive T cells, DDA or the solvent vehicle was added at the beginning of culture at Day 0 or at Day 4 and cells was analyzed at day 5 by flow cytometry.
# SKMEL-28 cells = assay: Exosome production of SKMEL-28 cells (shCTRL or shLXRbeta) treated with DDA; assay type: cell-based, human; details: for production of exosomes: 2.5 μM DDA for 24 h
# Experimental: Obtention of LXRβ knock-down cells. SKMEL28 cells ([…]) or E0771 (3×10^6) were transfected with the Neon Transfection System (Invitrogen) with 1 μg or 3 μg of small hairpin RNA targeting human LXRβ or mouse LXRβ (two different shRNA were used) or with 1 μg control ShRNA. Transfected cells were selected in multiwell plates (10 000 cells/well) with puromycin ranging from 1-10 μg/ml. Two clones transfected with two different shRNA against LXRβ with LXRβ expression knocked-down by 70% and 80% (for SKMEL28) and by 90% and 95% (for E0771) and two control clones were selected.
# Exosome quantification. 1) Protein content in exosomes was quantified by the spectrophotometric method of Lowry in presence of 0.1% w/v sodium dodecyl […]. 2) Exosomes were also quantified by flow cytometry following labeling with the fluorescent lipid Bodipy-ceramide (Invitrogen-Molecular Probes) for 1 hour at 37° C. Excess of Bodipy-ceramide was removed by filtration and washing through the 1000 kDa Vivaspin filter and exosomes were quantitated by FACS. 3) Numeration of exosomes vesicles was performed either by nano tracking analysis (Nanosight equipment, Malvern, France) or by TRPS (tunable resistive pulse sensing) technology (qNano equipment, Izon, UK).
# [3] = test system: E0771 sh control or E0771 sh LXR tumors; assay: Tumor growth and survival, E0771 sh control or E0771 sh LXR tumors, DDA treatment; assay type: in vivo, mouse
# Experimental: FIGS. 13A-B. Tumor growth analysis (A) Exponentially growing E0771 sh control or E0771 sh LXR cells were collected, washed twice in PBS and resuspended in PBS (300,000 cells in 100 μl PBS). […] mice were grafted subcutaneously with 300 000 E0771 sh control or E0771 sh LXR tumor cells. […] At day 15 of treatment with DDA or the solvent vehicle, the tumors were removed and the immune cells infiltrated into the tumors were analyzed by flow cytometry (see FIG. 14).
# FIGS. 16A-C. The control of tumor growth and the increase in animal survival upon DDA treatment are dependent on the LXRβ expressed in tumor cells. […] The animals were monitored over time for (A) tumor growth and (B) animal survival. (C) Tumor weights were measured at the end of the experiment.
# [4] = E0771 expressing LXRβ, 0.37 μg/kg DDA IP every two days (FIG. 16)
smiles,measurement,setting,value
"CC(C)CCCC(C)[C@H]1CCC2C3C[C@@H](NCCc4cnc[nH]4)[C@@]4(O)C[C@@H](O)CC[C@]4(C)C3CC[C@@]21C (stereo partly shown) [DDA, 5a-hydroxy-6b-[2-(1H-imidazol-4-yl)ethylamino]cholestan-3b-ol]",concentration from which differentiation of Th0 into Th1 is increased,"[1]; DDA added at day 0, Th1 polarizing conditions, 96 h, CD4+Tbet+IFNg+",≥ 1 nM
same,Th2 differentiation,"[1]; DDA added at day 0, Th2 polarizing conditions",no effect
same,concentration from which differentiation of Th0 into Th17 is increased,"[1]; DDA added at day 0, Th17 polarizing conditions, 96 h",≥ 100 nM
same,Treg differentiation,"[1]; DDA added at day 0, Treg polarizing conditions",no effect
same,concentration from which differentiation of Th0 into Th1 is increased,[1]; DDA added at day 4 for 24 h,≥ 1 nM
same,differentiation into Th2,[1]; DDA added at day 4 for 24 h,no effect
same,differentiation into Th17,[1]; DDA added at day 4 for 24 h,no effect
same,differentiation of Th0 into Treg,[1]; DDA added at day 4 for 24 h (FIG. 2),inhibits
same,activated phenotype of CD4 T cells (CD44 at their surface),"[1]; day 4, data not shown",upregulation of CD44
same,concentration from which differentiation of naïve CD8 T cells into functional cytotoxic CD8 T cells is increased,"[2]; DDA added at day 0, 96 h, CD8+GranzymB+IFNg+",≥ 10 nM
same,concentration from which differentiation of naïve CD8 T cells into functional cytotoxic CD8 T cells is increased,[2]; DDA added at day 4 for 24 h,≥ 1 nM
same,CD8 T cells phenotype,[2]; data not shown,no significant effect
same,production of exosomes,SKMEL-28 cells; SKMEL-28-shCTRL cells,about 2 fold
same,production of exosomes,SKMEL-28 cells; SKMEL-28-shLXRbeta cells,does not stimulate
same,exosome secretion from human melanoma cells,"SKMEL-28 cells; SKMEL-28 cells, data not shown",stimulates exosome secretion
same,animal survival,[3]; [4],increases animal survival
same,tumor growth,[3]; [4],inhibits tumor growth
same,effect on growth of tumors,"[3]; E0771 sh LXR, 0.37 μg/kg DDA every 2 days (FIG. 13)",abolished
same,growth of tumors,"[3]; E0771 sh control, 0.37 μg/kg DDA every 2 days (FIG. 13)",significantly controls the growth
